Results taken from patent publication US20050009776A1, “Method of treating atrial fibrillation or atrial flutter” (Aderis Pharmaceuticals, Inc., priority 2003, published 2005).
Marks after values point to notes of the source that are not given here.

Tests used:
[1] = tested on: A1 receptor / A3 receptor; experiment: Affinity for adenosine A1 receptor relative to A3 receptor; type: binding
Description: Therefore, DTI-0009 may be capable of terminating episodes of supraventricular arrythymias at doses that have little effect on normal heart rate or blood pressure.

[2] = tested on: atrioventricular (AV) node; experiment: Example 2: electrophysiologic effects on atrioventricular nodal function, 30-minute i.v. infusion; type: in vivo, human
Experimental: An open-label, sequential group, dose-escalation study was conducted in electrophysiology laboratories at 11 sites in the United States between October 2000 and August 2001. The study protocol was approved by the institutional review board at each site, and patients provided assent and written informed consent prior to enrollment. Male and female patients (18 to 80 years of age), scheduled to undergo an electrophysiological (EP) study for a known or suspected cardiac arrhythmia or a catheter ablation procedure to an area other than the atrioventricular (AV) node, were enrolled in the study. Study procedures were performed after the completion of the scheduled EP procedure and patients were to be in sinus rhythm at study baseline. Exclusion criteria included: greater than first degree AV block, previous ablation of the AV node or AV node slow pathway, presence of an AV Wenckebach cycle length (AV WBCL)≧500 msec, treatment with atropine during the scheduled EP procedure, systolic blood pressure <90 or >180 mmHg, significant hemodynamic instability, ventricular response rate (VRR)<50 bpm, consumption of caffeine-containing food or beverage within the previous 12 hours, treatment with dipyridamole or diltiazem within the respective 5 half lives or theophylline, aminophylline, treatment with a therapeutic adenosine antagonist within the previous 24 hours, heart transplant or myocardial infarction within 30 days, known hypersensitivity to adenosine, known human immunodeficiency virus infection, or clinically significant hematologic, neurologic, hepatic, or renal function impairment.
Each patient received 1 of 6 doses of DTI-0009 (0.25, 1.0, 2.5, 4.0, 10.0, or 25.0 μg/kg) diluted in normal saline or normal saline only (control). Study drug was administered as a 30-minute i.v. infusion at a rate of 1 mL/minute. Patients were enrolled in sequential dose groups, beginning with the lowest active dose group and continuing in increasing dose order; the final group received normal saline. The decision to proceed to the next highest dose group was based on the safety response in the previous dose group.
Electrophysiologic (EP), electrocardiogram (ECG), blood pressure measurements, and blood collection for clinical laboratory measurements were performed at baseline (−10 to 0 minutes), during treatment (between 20 and 30 minutes), and at 10 minutes post-treatment.
EP measurements included ventricular response rate (VRR) during fixed atrial pacing at 250 and 400 msec (VRR 250 and VRR 400), AV WBCL, the interval from atrium to His bundle (AH interval) during sinus rhythm and rapid fixed atrial pacing at 600 msec, AV node effective refractory period (AVNERP), and atrial effective refractory period (AERP). Ventricular response rate during sinus rhythm was derived from the sinus cycle length.
ECG measurements included PR interval, QRS complex duration, and QT interval. Efficacy was based on changes in EP and ECG parameters from baseline to the treatment period and to post treatment. Safety was based on the incidence of adverse events, blood pressure measurements, and clinical laboratory values.
Demographic and baseline information were summarized by dose group. Efficacy variables were summarized overall by dose group at baseline, during treatment, and at post-treatment; mean changes from baseline to treatment period and post-treatment were calculated. Treatment effects (the mean difference between change from baseline for DTI-0009 dose and change from baseline for normal saline) and confidence intervals (95% CI) were estimated from an analysis of covariance (ANCOVA) model with treatment as the main factor and baseline score as a covariate. Regression models were constructed to test for dose responses. Efficacy analyses included all patients who received at least 20 minutes of study drug infusion, had analyzable VRR 250 at baseline and during treatment, and were in sinus rhythm at baseline.

In the case of `CCNC(=O)[C@H]1O[C@@H](n2cnc3c(NC4CCCC4)ncnc32)[C@H](O)[C@@H]1O` [DTI-0009, N^6-cyclopentyl-5′-(N-ethyl)carboxamidoadenosine], the “affinity for the A1 receptor higher than for the A3 receptor” value [1] is reported as 11 fold, the “AERP Treatment Effect” value ([2]; 0.25 μg/kg, during treatment) is reported as -9.6 ms and the “AH interval 600 msec Pacing Treatment Effect” value ([2]; 0.25 μg/kg, during treatment) is reported as 4.85 ms. The “AH interval Sinus Rhythm Treatment Effect” value ([2]; 0.25 μg/kg, during treatment) was -2.8 ms, the “AVNERP Treatment Effect” value ([2]; 0.25 μg/kg, during treatment) was -7.03 ms and the “AERP Treatment Effect” value ([2]; 1.0 μg/kg, during treatment) was -18.3 ms. The “AH interval 600 msec Pacing Treatment Effect” value ([2]; 1.0 μg/kg, during treatment) was 2.6 ms, the “AH interval Sinus Rhythm Treatment Effect” value ([2]; 1.0 μg/kg, during treatment) was -0.1 ms and the “AVNERP Treatment Effect” value ([2]; 1.0 μg/kg, during treatment) was -1.0 ms. For the same molecule, the “PR interval treatment effect” value ([2]; 1.0 μg/kg, during treatment, p=0.008) was -42.2 ms, the “PR interval treatment effect” value ([2]; 1.0 μg/kg, post-treatment, p=0.023) was -34.5 ms and the “AERP Treatment Effect” value ([2]; 2.5 μg/kg, during treatment) was -7.3 ms. For the same molecule, the “AH interval 600 msec Pacing Treatment Effect” value ([2]; 2.5 μg/kg, during treatment) was 18.0 ms, the “AH interval Sinus Rhythm Treatment Effect” value ([2]; 2.5 μg/kg, during treatment) was 7.1 ms and the “AVNERP Treatment Effect” value ([2]; 2.5 μg/kg, during treatment) was 16.0 ms. The “AERP Treatment Effect” value ([2]; 4.0 μg/kg, during treatment) was 0.6 ms, the “AH interval 600 msec Pacing Treatment Effect” value ([2]; 4.0 μg/kg, during treatment) was 18.7 ms and the “AH interval Sinus Rhythm Treatment Effect” value ([2]; 4.0 μg/kg, during treatment) was 7.2 ms. For the same molecule, the “AVNERP Treatment Effect” value ([2]; 4.0 μg/kg, during treatment) was 82.4 ms, the “VRR 250 treatment effect” value ([2]; 4.0 μg/kg, during treatment, CI −51.0, −8.4, p=0.008) was −29.7 bpm and the “AERP Treatment Effect” value ([2]; 10.0 μg/kg, during treatment) was −22.0* msec. For the same molecule, the “AH interval 600 msec Pacing Treatment Effect” value ([2]; 10.0 μg/kg, during treatment) was 57.9*** msec, the “AH interval Sinus Rhythm Treatment Effect” value ([2]; 10.0 μg/kg, during treatment) was 21.1** msec and the “AVNERP Treatment Effect” value ([2]; 10.0 μg/kg, during treatment) was 231.5*** msec. The “VRR 250 treatment effect” value ([2]; 10.0 μg/kg, during treatment, CI −68.3, −26.4, p=0.001) was −47.4 bpm, the “PR interval treatment effect” value ([2]; 10.0 μg/kg, post-treatment, p=0.007) was 42.9 ms and the “AERP Treatment Effect” value ([2]; 25.0 μg/kg, during treatment) was 4.0 ms. For the same molecule, the “AH interval 600 msec Pacing Treatment Effect” value ([2]; 25.0 μg/kg, during treatment) was 64.8** msec, the “AH interval Sinus Rhythm Treatment Effect” value ([2]; 25.0 μg/kg, during treatment) was 14.2 ms and the “AVNERP Treatment Effect” value ([2]; 25.0 μg/kg, during treatment) was 198.3* msec. For the same molecule, the “VRR 250 treatment effect” value ([2]; 25.0 μg/kg, during treatment, CI −85.7, −18.5, p=0.004) was −52.1 bpm, the “VRR 250 treatment effect at lower doses” value ([2]; 0.25, 1.0, and 2.5 μg/kg) was “no statistically significant treatment effect” and the “QRS duration or QT interval” value ([2]; during the study) was “no statistically significant changes”. The “AV WBCL treatment effect” value ([2]; during treatment, 10.0 and 25.0 μg/kg (p=0.001, p=0.035)) was “statistically significant treatment effects (increases from baseline)” and the “AV WBCL treatment effect” value ([2]; post-treatment, 4.0, 10.0 and 25.0 μg/kg (p=0.013, p=0.001, p=0.001)) was “statistically significant treatment effects (increases from baseline)”.
